Assay results taken from patent US10981894B2, “Melanocortin subtype-2 receptor (MC2R) antagonists and uses thereof” (Crinetics Pharmaceuticals, Inc., priority 2018, dated 2021).

Target: hMC2 receptor (Homo sapiens, UniProt Q01718)
Assay: hMC2 membrane binding assay ([125I]ACTH (1-39) Tyr23, SPA)
Set-up: scale not given here
Settings: crude hMC2R membranes from CRE-bla-CHO-K1 cells expressing hMC2 receptor and hMRAP; [125I]ACTH (1-39) Tyr23 0.2 nM; 1.5 hours at room temperature; read-out: MC2R binding potency
In short: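 CRE-bla-CHO-K1 membranes co-expressing hMC2 receptor and hMRAP, preincubated with WGA PVT SPA beads in pH 7.4 HEPES/MgCl2/CaCl2/0.2% BSA buffer. Compounds (typically 0–10,000 nM final) compete with 0.2 nM [125I]ACTH(1-39) Tyr23 for 1.5 h at room temperature. SPA counts give Ki by non-linear regression.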

Sequence of hMC2 receptor (Q01718 whole entry): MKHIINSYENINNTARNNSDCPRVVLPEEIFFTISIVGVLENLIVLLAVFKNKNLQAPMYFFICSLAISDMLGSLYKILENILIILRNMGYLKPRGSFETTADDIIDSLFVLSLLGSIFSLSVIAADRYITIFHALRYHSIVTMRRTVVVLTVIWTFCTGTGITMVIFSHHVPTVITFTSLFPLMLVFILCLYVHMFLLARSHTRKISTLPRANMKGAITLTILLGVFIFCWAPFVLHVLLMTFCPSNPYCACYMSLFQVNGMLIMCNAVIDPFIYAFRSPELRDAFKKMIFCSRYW
Sequence of hMC2 receptor (Q8TCY5 whole entry partner): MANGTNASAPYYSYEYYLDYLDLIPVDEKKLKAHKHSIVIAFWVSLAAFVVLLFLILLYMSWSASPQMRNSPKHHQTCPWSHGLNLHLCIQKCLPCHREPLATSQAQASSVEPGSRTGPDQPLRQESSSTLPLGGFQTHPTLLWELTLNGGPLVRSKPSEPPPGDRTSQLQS

SMILES	Ki [nM]
CCOc1ncccc1-c1ccc(N2CCN(C(=O)c3ccc(Cl)cc3C(F)F)C[C@H]2CC)c(C(=O)N[C@@H]2CCNC2)c1F [Compound 1-190, 6-[(2R)-4-[4-chloro-2-(difluoromethyl)benzoyl]-2-ethylpiperazin-1-yl]-3-(2-ethoxypyridin-3-yl)-2-fluoro-N-[(3R)-pyrrolidin-3-yl]benzamide]	< 10
CCOc1ccccc1-c1ccc(N2CCN(C(=O)c3c(F)cc(C)cc3-c3ccc(CN)cc3)C[C@H]2CC)c(C(=O)NCCN)c1 [Compound 1-27, N-(2-aminoethyl)-4-[(2R)-4-[4′-(aminomethyl)-3-fluoro-5-methyl-[1,1′-biphenyl]-2-carbonyl]-2-ethylpiperazin-1-yl]-2′-ethoxy-[1,1′-biphenyl]-3-carboxamide]	< 10
CCOc1ccc(C(=O)N2CCN(c3ccc(-c4cccnc4OCC)c(F)c3C(=O)NCCNC)[C@H](CC)C2)c(C(F)(F)F)n1 [Compound 1-165, 6-[(2R)-4-[6-ethoxy-2-(trifluoromethyl)pyridine-3-carbonyl]-2-ethylpiperazin-1-yl]-3-(2-ethoxypyridin-3-yl)-2-fluoro-N-[2-(methylamino)ethyl]benzamide]	< 10
CCOc1ncccc1-c1ccc(N2CCN(C(=O)N3CCc4cccc(C(F)(F)F)c43)C[C@H]2CC)c(C(=O)N[C@H]2CCN(C)C2)n1 [Compound 1-389, 2′-ethoxy-5-[(2R)-2-ethyl-4-[7-(trifluoromethyl)-2,3-dihydro-1H-indole-1-carbonyl]piperazin-1-yl]-N-[(3S)-1-methylpyrrolidin-3-yl]-[2,3′-bipyridine]-6-carboxamide]	< 10
CCOc1ncccc1-c1ccc(N2CCN(C(=O)O[C@@H](C(C)(C)C)C(F)(F)F)C[C@H]2CC)c(C(=O)N[C@@H]2CN3CCC2CC3)n1 [Compound 1-403, (2S)-1,1,1-trifluoro-3,3-dimethylbutan-2-yl (3R)-4-(6-{[(3S)-1-azabicyclo[2.2.2]octan-3-yl]carbamoyl}-2′-ethoxy-[2,3′-bipyridin]-5-yl)-3-ethylpiperazine-1-carboxylate; or (2R)-1,1,1-trifluoro-3,3-dimethylbutan-2-yl (3R)-4-(6-{[(3S)-1-azabicyclo[2.2.2]octan-3-yl]carbamoyl}-2′-ethoxy-[2,3′-bipyridin]-5-yl)-3-ethylpiperazine-1-carboxylate]	< 10
CCOc1ncccc1-c1ccc(N2CCN(C(=O)c3ccc(C(F)(F)F)nc3N(C)C)C[C@H]2CC)c(C(=O)NCCN)c1 [Compound 1-76, N-(2-aminoethyl)-2-[(2R)-4-[2-(dimethylamino)-6-(trifluoromethyl)pyridine-3-carbonyl]-2-ethylpiperazin-1-yl]-5-(2-ethoxypyridin-3-yl)benzamide]	< 10

The next lines start with the values.

Ki [nM]	SMILES
< 10	CCOc1ccccc1-c1ccc(N2CCN(C(=O)C34CCC(C(F)(F)F)(CC3)C4)C[C@H]2CC)c(C(=O)N[C@@H]2CCN(C)C2)n1 [Compound 1-388, 6-(2-ethoxyphenyl)-3-[(2R)-2-ethyl-4-[4-(trifluoromethyl)bicyclo[2.2.1]heptane-1-carbonyl]piperazin-1-yl]-N-[(3R)-1-methylpyrrolidin-3-yl]pyridine-2-carboxamide]
< 10	CCOc1ncccc1-c1ccc(N2CCN(C(=O)O[C@H](C(C)(C)C)C(F)(F)F)C[C@H]2CC)c(C(=O)N[C@@H]2CCN(C)C2)n1 (single isomer, unassigned) [Compound 1-406]
< 10	CCOc1ncccc1-c1ccc(N2CCN(C(=O)O[C@H](c3ccccc3)C(F)(F)F)C[C@H]2CC)c(C(=O)N[C@@H]2CCNC2)n1 [Compound 1-351, (1R)-2,2,2-trifluoro-1-phenylethyl (3R)-4-(2′-ethoxy-6-{[(3R)-pyrrolidin-3-yl]carbamoyl}-[2,3′-bipyridin]-5-yl)-3-ethylpiperazine-1-carboxylate]
